Results from patent US20250195485A1, “PROPIONIC ACID DERIVATIVE AND MEDICAL USE THEREOF” (Xizang Haisco Pharmaceutical Co., Ltd., priority 2021, published 2025).

Key:
integrin α4β1 = molecular target: T1, integrin α4β1 (Homo sapiens, UniProt P05556+P13612); test: Integrin α4β1-mediated cell adhesion assay (Jurkat cells on VCAM); type: cell-based; conditions: Jurkat cells adhering to VCAM-1
T1 construct: Jurkat cells were collected, washed twice using DPBS buffer; endogenous in cells; host or cells: Jurkat cells
Experimental: VCAM was formulated into a final concentration of 0.5 μg/ml with a coating buffer, 50 μl of the solution was transferred to a 96-well plate, and the plate was coated with same at 4° C. overnight. The plate was washed with coating buffer three times, then 150 μl of a blocking solution (coating buffer containing 1% BSA) was added, and the plate was blocked at 37° C. for 1 h. […] 50 μl of the cell suspension was transferred to a 96-well plate so that the cell density reached 2×10^5 cells/well. Then 1 μl of the test compound at different concentration or DMSO was added and the plate was incubated at 37° C. for 1 h. The plate was washed with coating buffer to remove non-adherent cells. 50 μl of a substrate (4-nitrophenyl-N-acetyl-β-D-glucosaminide) was added and the plate was incubated at 37° C. for 2 h. […] The […] was calculated using GraphPad Prism 6 software. The results are shown in Table 1. • Coating buffer: DMEM+20 mM HEPES+0.4 mM MnC2 • Action buffer: DMEM+20 mM HEPES+0.1% BSA+0.4 mM MnCl2 • DMEM: dulbecco's modified eagle medium; • HEPES: 2-[4-(2-hydroxyethyl)piperazin-1-yl]ethanesulfonic acid

integrin α4β7 = molecular target: T2, integrin α4β7 (Homo sapiens, UniProt P13612+P26010); test: Integrin α4β7-mediated cell adhesion assay (RPM18866 cells on MAdCAM-1); type: cell-based; conditions: for IC50: RPMI-8866 cells adhering to MAdCAM-1; for α4β1/α4β7: selectivity ratio of α4β1 IC50 to α4β7 IC50 in cell adhesion
T2 sequence (P13612 34-1032): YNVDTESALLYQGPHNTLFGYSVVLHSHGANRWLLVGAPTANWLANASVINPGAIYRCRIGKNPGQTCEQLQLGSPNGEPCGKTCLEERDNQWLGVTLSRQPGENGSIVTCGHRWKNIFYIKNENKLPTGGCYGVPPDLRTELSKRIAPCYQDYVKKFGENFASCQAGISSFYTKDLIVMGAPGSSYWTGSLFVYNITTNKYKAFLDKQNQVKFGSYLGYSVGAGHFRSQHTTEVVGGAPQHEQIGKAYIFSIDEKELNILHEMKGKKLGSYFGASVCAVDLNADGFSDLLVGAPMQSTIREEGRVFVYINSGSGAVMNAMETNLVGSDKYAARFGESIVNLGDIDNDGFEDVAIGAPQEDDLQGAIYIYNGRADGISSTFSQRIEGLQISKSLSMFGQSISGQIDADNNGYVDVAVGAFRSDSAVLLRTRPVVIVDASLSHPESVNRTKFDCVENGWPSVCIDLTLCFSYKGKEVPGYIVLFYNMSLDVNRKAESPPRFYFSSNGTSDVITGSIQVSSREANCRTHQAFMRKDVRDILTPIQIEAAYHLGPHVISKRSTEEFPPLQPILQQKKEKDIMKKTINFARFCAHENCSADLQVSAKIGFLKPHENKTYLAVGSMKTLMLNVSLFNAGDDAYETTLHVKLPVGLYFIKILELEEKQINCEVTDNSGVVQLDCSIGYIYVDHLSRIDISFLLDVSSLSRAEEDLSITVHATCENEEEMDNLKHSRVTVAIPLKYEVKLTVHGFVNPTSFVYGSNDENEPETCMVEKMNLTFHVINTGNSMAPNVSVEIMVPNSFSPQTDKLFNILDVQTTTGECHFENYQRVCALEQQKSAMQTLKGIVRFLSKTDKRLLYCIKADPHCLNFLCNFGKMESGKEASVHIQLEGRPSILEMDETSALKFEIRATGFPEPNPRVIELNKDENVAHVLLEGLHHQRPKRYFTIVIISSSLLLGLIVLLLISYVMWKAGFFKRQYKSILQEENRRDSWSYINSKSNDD
T2 sequence (P26010 20-798): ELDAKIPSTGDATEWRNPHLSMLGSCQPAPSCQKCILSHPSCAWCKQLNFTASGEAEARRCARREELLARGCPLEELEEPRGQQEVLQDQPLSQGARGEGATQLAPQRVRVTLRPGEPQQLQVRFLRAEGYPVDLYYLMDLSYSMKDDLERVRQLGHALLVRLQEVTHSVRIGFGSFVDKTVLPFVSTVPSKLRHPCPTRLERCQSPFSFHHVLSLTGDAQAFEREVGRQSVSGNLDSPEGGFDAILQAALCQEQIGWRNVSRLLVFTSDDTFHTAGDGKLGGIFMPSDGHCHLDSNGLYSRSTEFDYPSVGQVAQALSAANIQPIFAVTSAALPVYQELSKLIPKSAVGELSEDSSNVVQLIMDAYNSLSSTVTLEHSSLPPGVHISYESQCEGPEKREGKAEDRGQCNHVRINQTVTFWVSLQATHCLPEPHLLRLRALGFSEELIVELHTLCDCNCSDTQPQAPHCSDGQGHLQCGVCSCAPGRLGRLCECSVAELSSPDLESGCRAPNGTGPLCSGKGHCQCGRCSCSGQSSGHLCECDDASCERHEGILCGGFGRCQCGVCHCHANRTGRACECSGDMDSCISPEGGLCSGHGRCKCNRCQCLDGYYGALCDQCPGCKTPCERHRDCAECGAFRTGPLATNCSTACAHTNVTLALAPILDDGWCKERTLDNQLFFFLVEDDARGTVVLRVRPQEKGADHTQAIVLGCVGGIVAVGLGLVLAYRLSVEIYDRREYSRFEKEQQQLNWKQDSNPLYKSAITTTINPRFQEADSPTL
Experimental: MAdCAM-1 was formulated with TBS buffer to a final concentration of 2 μg/ml, 50 μl of the solution was transferred to a 96-well plate, and the plate was coated with same at 4° C. overnight. The plate was washed with TBS buffer three times, then 150 μl of a blocking solution (TBS buffer containing 1% BSA) was added, and the plate was blocked at 37° C. for 1 h. […] 50 μl of the cell suspension was transferred to a 96-well plate so that the cell density reached 2×10^5 cells/well. Then 1 μl of the compound at different concentrations or DMSO was added and the plate was incubated at 37° C. for 1 h or 2 h. The plate was washed with TBS buffer to remove non-adherent cells. 50 μl of a substrate (4-nitrophenyl-N-acetyl-β-D-glucosaminide) was added and the plate was incubated at 37° C. for 2 h. […] The IC50 value was calculated using GraphPad Prism 6 software.

[1] = Pharmacokinetic test in mice; type: in vivo; conditions: male BALB/c mice
Experimental: Experimental animals: male BALB/c mice, 20-25 g, 6 mice/compound. Purchased from Chengdu Ddossy Experimental Animals Co., Ltd.
Test design: on the day of the test, 6 BALB/c mice were randomly grouped according to their body weights. The animals were fasted with water available for 12 to 14 h one day before the administration, and were fed 4 h after the administration.
Before and after the administration, 0.06 mL of blood was taken from the orbit of the animals under isoflurane anesthesia and placed in an EDTAK2 centrifuge tube. The blood was centrifuged at 5000 rpm and 4° C. for 10 min to collect the plasma. The blood collection time points for the intravenous group and intragastric administration group were: 0 min, 5 min, 15 min, 30 min, 1 h, 2 h, 4 h, 6 h, 8 h, and 24 h. Before analysis and detection, all samples were stored at −80° C. The samples were analyzed quantitatively by LC-MS/MS.

T1 sequence (P05556 21-798, one chain of several): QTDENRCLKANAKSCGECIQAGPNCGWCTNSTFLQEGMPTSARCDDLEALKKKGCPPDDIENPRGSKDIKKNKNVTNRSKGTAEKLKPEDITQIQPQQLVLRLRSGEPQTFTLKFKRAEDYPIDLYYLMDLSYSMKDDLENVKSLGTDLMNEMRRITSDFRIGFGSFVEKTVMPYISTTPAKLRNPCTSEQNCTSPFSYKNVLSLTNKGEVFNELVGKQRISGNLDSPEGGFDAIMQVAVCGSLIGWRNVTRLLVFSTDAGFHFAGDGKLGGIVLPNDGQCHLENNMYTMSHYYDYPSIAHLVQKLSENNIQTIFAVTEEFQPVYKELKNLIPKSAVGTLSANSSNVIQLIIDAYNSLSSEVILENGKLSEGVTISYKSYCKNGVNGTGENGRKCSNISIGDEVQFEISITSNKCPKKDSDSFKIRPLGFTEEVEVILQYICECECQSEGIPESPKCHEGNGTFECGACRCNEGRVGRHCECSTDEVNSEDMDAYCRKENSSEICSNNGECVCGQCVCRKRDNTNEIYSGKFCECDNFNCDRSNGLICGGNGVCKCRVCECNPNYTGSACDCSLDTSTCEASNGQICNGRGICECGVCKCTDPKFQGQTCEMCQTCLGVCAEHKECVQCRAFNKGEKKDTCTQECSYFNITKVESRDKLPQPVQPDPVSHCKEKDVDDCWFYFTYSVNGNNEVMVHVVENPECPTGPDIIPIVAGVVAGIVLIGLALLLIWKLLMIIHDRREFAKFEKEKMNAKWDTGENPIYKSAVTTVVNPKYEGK

SMILES	IC50 (integrin α4β1) [nM]	IC50 (integrin α4β7) [nM]	α4β1/α4β7 (integrin α4β7)	further results
C#Cc1ncc(C(CC(=O)O)NC(=O)C(CC(C)C)n2cc(CCN3CC(F)C3)cc(F)c2=O)cc1-c1c(C)cccc1C (stereo not shown) [Compound 14]	126	< 0.5	>500	–
C#Cc1cc(-c2c(C)cc(F)cc2C)cc(C(CC(=O)O)NC(=O)C(CC(C)C)n2cc(CCN(C)C)c(C(F)(F)F)cc2=O)c1F (stereo not shown) [Compound 26-2]	–	< 0.5	–	–
Cc1cc(-c2c(C)cc(F)cc2C)cc([C@H](CC(=O)O)NC(=O)[C@H](CC(C)C)n2cc(CCN(C)C)c(C(F)(F)F)cc2=O)c1F [Control compound A, reference compound]	–	–	–	F ([1]; intragastrically 10 mg/kg vs intravenously 1 mg/kg): 28.2%; clearance ([1]; mouse, intravenous, plasma, groups: intravenously 1 mg/kg, intragastrically 10 mg/kg (route for this parameter not stated)): 56 mL/min/kg; AUC ([1]; mouse, plasma, oral absorption results, groups: intravenously 1 mg/kg, intragastrically 10 mg/kg (route for this parameter not stated)): 830 ng·h/mL
Cc1cc(-c2c(C)cccc2C)cc(C(CC(=O)O)NC(=O)C(CC(C)C)n2cc(CCN3CC(CF)C3)cc(F)c2=O)c1F (stereo not shown) [Compound 13]	–	< 10	–	–
Cc1ccn(C(CC(C)C)C(=O)NC(CC(=O)O)c2cc(-c3c(C)cccc3C)n3ccnc3c2)c(=O)c1 (stereo not shown) [Compound 9]	–	< 10	–	–
Cc1cc(F)cc(C)c1-c1cc(C(CC(=O)O)NC(=O)C(CC(C)C)n2cc(CCN(C)C)c(C(F)(F)F)cc2=O)cc2nccn12 (stereo not shown) [Trifluoroacetate of compound 20-2]	36.6	< 0.5	>100	–
Cc1cc(C)c(-c2cc(C(CC(=O)O)NC(=O)C(CC(C)C)n3cc(CCN(C)C)c(C(F)(F)F)cc3=O)cn3ccnc23)c(C)c1 (stereo not shown) [Trifluoroacetate of compound 22-2]	–	< 10	–	–
Cc1cc(F)cc(C)c1-c1cc(C(CC(=O)O)NC(=O)C(CC(C)C)n2cc(CCN(C)C)c(C(F)(F)F)cc2=O)cc2c1CCC2 (stereo not shown) [Compound 30-2]	91.1	< 0.5	1011.7	–
